Data on 45 compounds can be found in ChEMBL document CHEMBL4219256, “Design, Synthesis, and Biological Evaluation of 4-Quinoline Carboxylic Acids as Inhibitors of Dihydroorotate Dehydrogenase” (J Med Chem, 2018).

The test system of one assay is MIA PaCa-2. Put plainly: Antiproliferative activity against human MIAPaCa2 cells after 72 hrs by MTT assay. It is filed as functional, cell-based. (Tetrazolium dyes change colour on reduction, which living cells bring about.)
The next assay deals with HCT-116. Put plainly: Antiproliferative activity against human HCT116 cells over-expressing DHODH after 72 hrs by MTT assay. The format is functional, cell-based.
The test system of the next assay is HL-60. Put plainly: Antiproliferative activity against human HL60 cells after 72 hrs by MTT assay.
Assay [1] addresses Dihydroorotate dehydrogenase (quinone), mitochondrial (Homo sapiens, UniProt Q02127).
Description: Inhibition of DHODH (unknown origin) expressed in Escherichia coli Rosetta2(DE3) assessed as reduction of DCIP using dihydroorotate as substrate preincubated for 30 mins followed by substrate addition in presence of CoQ10 measured after 1 hr

Sequence of Dihydroorotate dehydrogenase (quinone), mitochondrial (Q02127 whole entry): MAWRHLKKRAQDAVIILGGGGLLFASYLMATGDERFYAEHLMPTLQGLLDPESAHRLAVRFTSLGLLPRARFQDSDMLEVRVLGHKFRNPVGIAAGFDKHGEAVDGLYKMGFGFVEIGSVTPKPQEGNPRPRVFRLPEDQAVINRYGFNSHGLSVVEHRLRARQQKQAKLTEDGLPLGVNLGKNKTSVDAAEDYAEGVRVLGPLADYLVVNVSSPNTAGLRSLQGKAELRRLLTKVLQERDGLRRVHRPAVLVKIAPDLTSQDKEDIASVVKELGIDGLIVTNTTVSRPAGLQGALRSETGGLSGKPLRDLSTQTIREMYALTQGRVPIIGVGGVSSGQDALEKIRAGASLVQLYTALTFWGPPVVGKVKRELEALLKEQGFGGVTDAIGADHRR

As for `O=C(O)c1cc(-c2ccc(-c3ccccc3)cc2)nc2ccccc12`, the half-maximal inhibitory concentration (IC50) was 2.16 µM with MIA PaCa-2, 0.344 µM in the assay with HCT-116 and 3.51 µM in the assay with HL-60.

Consider `Cc1ccc(-c2ccc(-c3nc4ccc(F)cc4c(C(=O)O)c3C)cc2)c(Cl)n1`, for which the IC50 in the assay with MIA PaCa-2 was 6.57 µM; in the assay on HCT-116, 1.98 µM; with HL-60, 4.81 µM.

As to `O=C(O)c1cc(-c2ccc(-c3cncnc3)cc2)nc2ccccc12`, the concentration for half-maximal inhibition (IC50) was above 50 µM with MIA PaCa-2, above 50 µM in the assay on HCT-116 and above 200 µM in assay [1].

Take `Cc1ccc(-c2ccc(-c3nc4ccccc4c(C(=O)O)c3C)cc2)c(F)n1`: the 50% inhibitory concentration (IC50) came out at 31.6 µM in the assay on MIA PaCa-2 and 23.9 µM with HCT-116.

With `O=C(O)c1cc(-c2ccc(-c3ccc(F)nc3)cc2)nc2ccccc12`, in the assay with HCT-116, the 50% inhibitory concentration (IC50) was 16.8 µM.

On to `O=C(O)c1cc(-c2ccc(-c3cnccc3C(F)(F)F)cc2)nc2ccccc12`, for which the 50% inhibitory concentration (IC50) turned out to be 8.71 µM in the assay with MIA PaCa-2 and 3.87 µM in the assay with HCT-116.

Regarding `O=C(O)c1cc(-c2ccccc2)nc2ccccc12` [CINCHOPHEN], the half-inhibitory concentration (IC50) was above 100 µM with MIA PaCa-2, above 100 µM with HCT-116 and 144 µM in assay [1].

For `O=C(O)c1cc(-c2ccc(-c3ccccn3)cc2)nc2ccccc12`, the figures for the IC50 in the assay with MIA PaCa-2 and with HCT-116 were 49.3 µM and 39.6 µM, respectively.

On to `Cc1c(-c2ccc(-c3cccnc3Cl)cc2)nc2ccccc2c1C(=O)O`, for which the IC50 in the assay on MIA PaCa-2 amounted to 8.64 µM; in the assay on HCT-116, 6.44 µM; in the assay with HL-60 it was 15.3 µM.

With `O=C(O)c1cc(-c2ccc(N3CCOCC3)cc2)nc2ccccc12`, the concentration for half-maximal inhibition (IC50) with MIA PaCa-2 is above 100 µM; with HCT-116, above 100 µM; in assay [1] it was above 200 µM.

`Cc1c(-c2ccc(-c3cccnc3Cl)cc2)nc2ccc(Cl)cc2c1C(=O)O`: the values for the IC50 in the assay with MIA PaCa-2 and in the assay on HCT-116 were 4.73 µM and 4.36 µM, respectively.

On to `Cc1c(-c2ccc(-c3cccnc3F)cc2)nc2ccccc2c1C(=O)O`, for which the IC50 is 13.4 µM with MIA PaCa-2 and 21.3 µM in the assay with HCT-116.

Take `O=C(O)c1cc(-c2ccc(-c3ccncc3)cc2)nc2ccccc12`: the IC50 with MIA PaCa-2 worked out at 68.1 µM; in the assay with HCT-116, 33.6 µM.

For `Cc1c(-c2ccc(-c3cccnc3F)cc2)nc2ccc(Cl)cc2c1C(=O)O`, the values for the IC50 in the assay with MIA PaCa-2 and in the assay on HCT-116 were 14.7 µM and 5.43 µM, respectively.

With `Cc1ccc(-c2ccc(-c3nc4cnccc4c(C(=O)O)c3C)cc2)c(Cl)n1`, the IC50 with MIA PaCa-2 was above 100 µM; in the assay with HCT-116 it was above 100 µM; in assay [1] it was 5.26 µM.

In the case of `CC(C)c1ccc(-c2cc(C(=O)O)c3ccccc3n2)cc1`, the IC50 is 24.2 µM in the assay with MIA PaCa-2 and 19.1 µM in the assay on HCT-116.

In the case of `Cc1c(-c2ccc(-c3ccccc3)cc2)nc2ncccc2c1C(=O)O`, the IC50 in the assay with MIA PaCa-2 is above 100 µM; with HCT-116 it was above 100 µM; in assay [1], 1.22 µM.

On to `COC(=O)c1cc(-c2ccc(-c3cnccc3C(F)(F)F)cc2)nc2ccccc12`, for which the IC50 in assay [1] is above 50 µM.

For `COC(=O)c1cc(-c2ccc(-c3cccnc3)cc2)nc2ccccc12`, the IC50 with MIA PaCa-2 was 6.43 µM; in the assay with HCT-116, 6.15 µM; in assay [1] it was above 200 µM.

Take `O=C(O)c1cc(-c2ccc(-c3cccnc3F)cc2)nc2ccccc12`: the IC50 with MIA PaCa-2 amounted to 32.1 µM; in the assay with HCT-116, 11.2 µM; in assay [1] it was 1.42 µM.

`Cc1ccc(-c2ccc(-c3cc(C(=O)O)c4ccccc4n3)cc2)c(Cl)n1`: the figures for the half-inhibitory concentration (IC50) in the assay on MIA PaCa-2 and in the assay with HCT-116 were 14.2 µM and 5.13 µM, respectively.

Regarding `Cc1ccc2nc(-c3ccc(-c4cccnc4Cl)cc3)c(C)c(C(=O)O)c2c1`, the IC50 was determined as 8.29 µM in the assay on MIA PaCa-2 and 11.1 µM with HCT-116.

`O=C(O)c1cc(-c2ccc(-c3cccnc3Cl)cc2)nc2ccccc12`: the IC50 with MIA PaCa-2 was found to be 7.13 µM; in the assay on HL-60, 7.12 µM.

On to `Cc1c(-c2ccc(-c3cccnc3F)cc2)nc2ccc(F)cc2c1C(=O)O`, for which the concentration for half-maximal inhibition (IC50) in the assay with MIA PaCa-2 stood at 23.6 µM; with HCT-116 it was 5.71 µM.

With `Cc1ccc(-c2ccc(-c3nc4ccccc4c(C(=O)O)c3C)cc2)c(Cl)n1`, the values for the 50% inhibitory concentration (IC50) with MIA PaCa-2 and in the assay on HCT-116 were 7.7 µM and 15.5 µM, respectively.

Take `COc1ncccc1-c1ccc(-c2cc(C(=O)O)c3ccccc3n2)cc1`: the concentration for half-maximal inhibition (IC50) with MIA PaCa-2 was 13.6 µM.

For `Cc1c(-c2ccc(-c3ccccc3F)cc2)nc2cnc(C(F)(F)F)cc2c1C(=O)O`, the 50% inhibitory concentration (IC50) in the assay on MIA PaCa-2 is 0.454 µM; in the assay with HCT-116, 0.333 µM; in the assay on HL-60, 0.401 µM; in assay [1], 0.0118 µM.

Regarding `Cc1c(-c2ccc(-c3ccccc3)cc2)nc2cnc(C(F)(F)F)cc2c1C(=O)O`, the IC50 in the assay with MIA PaCa-2 turned out to be 2.18 µM; in the assay on HCT-116 it was 0.88 µM; in the assay on HL-60, 2.67 µM; in assay [1], 0.0212 µM.

Consider `COc1ccccc1-c1ccc(-c2cc(C(=O)O)c3ccccc3n2)cc1`, for which the results for the IC50 with MIA PaCa-2 and in the assay on HCT-116 were 7.45 µM and 2.85 µM, respectively.

`Cc1c(-c2ccc(-c3cccnc3Cl)cc2)nc2cnc(C(F)(F)F)cc2c1C(=O)O`: the IC50 stood at 21.5 µM in the assay on MIA PaCa-2, 25.7 µM in the assay on HCT-116 and 0.201 µM in assay [1].

As to `Cc1c(-c2ccc(-c3ccccc3)cc2)nc2ccccc2c1C(=O)O`, the figures for the concentration for half-maximal inhibition (IC50) with MIA PaCa-2 and with HCT-116 were 5.29 µM and 8.51 µM, respectively.

Take `CC(C)Cc1ccc(-c2cc(C(=O)O)c3ccccc3n2)cc1`: the IC50 in the assay on MIA PaCa-2 was 14.5 µM.

Take `O=C(O)c1cc(-c2ccc(-c3ncccn3)cc2)nc2ccccc12`: the half-maximal inhibitory concentration (IC50) is above 50 µM in the assay on MIA PaCa-2, above 50 µM in the assay with HCT-116 and above 200 µM in assay [1].

Consider `Cc1ccc(-c2ccc(-c3nc4ccc(F)cc4c(C(=O)O)c3C)cc2)c(F)n1`, for which the half-maximal inhibitory concentration (IC50) in the assay with MIA PaCa-2 turned out to be 33.8 µM; in the assay with HCT-116, 33.7 µM.

`COC(=O)c1cc(-c2ccc(-c3ccccc3)cc2)nc2ccccc12`: the figures for the 50% inhibitory concentration (IC50) (with MIA PaCa-2; in the assay with HCT-116; in assay [1]) were 11.5 µM, 6.9 µM and above 200 µM, respectively.

`O=C(O)c1cc(-c2ccc(-c3cccnc3)cc2)nc2ccccc12`: the IC50 is 32.8 µM with MIA PaCa-2 and 20.9 µM in the assay with HCT-116.

`Cc1ncccc1-c1ccc(-c2cc(C(=O)O)c3ccccc3n2)cc1`: the concentration for half-maximal inhibition (IC50) in the assay on MIA PaCa-2 stood at 18.2 µM; in the assay with HL-60, 11.6 µM.

As for `COC(=O)c1cc(-c2ccc(C3CCCCC3)cc2)nc2ccccc12`, the results for the IC50 (with MIA PaCa-2; in the assay on HCT-116; in assay [1]) were 37.1 µM, 42.6 µM and above 200 µM, respectively.

As to `Cc1ccncc1-c1ccc(-c2cc(C(=O)O)c3ccccc3n2)cc1`, the IC50 came out at 17.9 µM in the assay on MIA PaCa-2 and 10.8 µM with HCT-116.

Regarding `O=C(O)c1cc(-c2ccc(N3CCCCC3)cc2)nc2ccccc12`, the results for the IC50 with MIA PaCa-2 and in the assay on HCT-116 were 16.7 µM and 7.23 µM, respectively.

For `Cc1c(-c2ccc(-c3ccccc3)cc2)nc2ccncc2c1C(=O)O`, the IC50 with MIA PaCa-2 turned out to be 28.1 µM; in the assay on HCT-116 it was 26.7 µM; in assay [1], 2.79 µM.

`O=C(O)c1cc(-c2ccc(-c3cccnc3C(F)(F)F)cc2)nc2ccccc12`: the IC50 in the assay on MIA PaCa-2 was determined as 8.84 µM; with HCT-116 it was 4.63 µM.

`Cc1c(-c2ccc(-c3cccnc3Cl)cc2)nc2cnccc2c1C(=O)O`: the IC50 in the assay on MIA PaCa-2 was above 100 µM; in the assay on HCT-116, above 100 µM; in assay [1], 0.259 µM.

As to `COC(=O)c1cc(-c2ccc(N3CCCCC3)cc2)nc2ccccc12`, the results for the 50% inhibitory concentration (IC50) (in the assay on MIA PaCa-2; in the assay on HCT-116; in assay [1]) were 31.8 µM, 38.2 µM and above 200 µM, respectively.

For `Cc1ccc(-c2ccc(-c3nc4ccc(Cl)cc4c(C(=O)O)c3C)cc2)c(Cl)n1`, the concentration for half-maximal inhibition (IC50) stood at 7.56 µM with MIA PaCa-2 and 2.71 µM in the assay on HCT-116.

A word on the IC50: it is the midpoint of a concentration-inhibition curve.
